Laboratory results: patent US6703426B1, “Treatment of breast cancer” (University of Central Florida, priority 2001, dated 2004)
Like-named read-outs stand apart in the source and are kept apart here.

Assays:
[1] = tested on: human breast cancer cells (ATCC HTB123); experiment: Cytotoxicity assay (MTS/PMS), growth inhibition of human breast cancer cells; format: cell-based; set-up: concentration or dose not given beside the values; details: approximately 48 hours growth with test compound
Description: The activity in human breast cancer of the novel compounds (as earlier reported) was realized by the following procedure which determines the inhibitory effect of test samples on the growth of human breast cancer cells.
(ATCC HTB123) The HTB123 cells are grown in RPMI 1640 media+10% Fetal bovine serum+4.5 g/L glucose+10 mM HEPES+1.0 mM sodium pyruvate+1% Antibiotic/Antimycotic for approximately 48 hours at 37° C./5% CO2 in the presence of the test compound.
Growth/Non-Growth of the cells (e.g., cell density) is determined using Promega's MTS/PMS assay system. MTS (3-(4,5-dimethylthiazol-2-yl)-5-(3-carboxymethoxyphenyl)-2-(4-sulfophenyl)-2H-tetrazolium, inner salt) is an aqueous compound that is reduced to soluble formazan by the presence of NADH formed by dehydrogenases present within the HTB123 cells. The absorbance of the formazan can be measured at 490 nm and is directly proportional to the number of living cells present in the culture. PMS (Phenazine Methosulfate) is added an electron coupling reagent and greatly increases the rate of reduction.
To facilitate a full understanding of the procedure the following definitions are offered:
Test wells—wells containing test sample and Diluted HTB 123 cells
Test values—absorbance of test wells
Blank wells—wells containing test sample and HTB 123 media (HHTB2-01S); used to obtain background absorbance due to test sample
Blank values—absorbance of blank wells.
Negative Control—maximal cell growth; results of test samples will be expressed as a percent of the Negative Control
Positive Control—known inhibitor of HTB123 cells; used to validate assay system
Matrix—solvent that the samples are prepared/diluted in
Assay samples of similar origin and matrix (e.g., methanol extraction, methylene chloride extraction, water soluble samples, etc.) together on the same plate in order to reduce the number of steps performed per plate.
Blank values will be determined for each sample to account for any color contribution due to the sample itself. These blank wells must contain the same amount of sample plus HTB123 media (no cells). After completion of MTS/PMS reaction blank values will be subtracted from the test value to obtain a net absorbance that will be used to calculate cell density.
All results are based upon a comparison to the Negative Control value of the plate. The Negative Control must contain the same amount of matrix (e.g., solvent) to offset any destructive effect the matrix may have on the growth of the HTB123 cells (allows for baseline values to be set).
For most samples, a HTB123 cell growth (diluted two to four-fold, depending upon the appearance of the inoculum*) of approximately 48 hours followed by and incubation of 3 hours with the MTS/PMS Reagent is optimal.
*Due to the nature of the HTB123 cells it is very difficult to obtain accurate cell densities. Continuation of the HTB123 cell line typically consists of the dilution of mature cells at two or three-fold into fresh media and growth at 37° C./5% CO2 for two to three days.
In order to establish the accuracy of this assay a Positive Control consisting of 50 μM Methotrexate should […] 90% of the Negative Control (HTB123 cells are somewhat resistant to methotrexate) is utilized.

white mice [2] = experiment: Animal toxicity bioassay (acute toxicity, LD50); format: in vivo; details: intraperitoneal injection, observed 14 days
[3] = Animal toxicity bioassay (acute toxicity, LD50); format: in vivo; details: both sexes, mouse, in vivo, ip, white mice, intraperitoneal injection, observed 14 days
[4] = Solubility in solvents and water; format: physicochemical; details: for Solubility in organic solvents: organic solvents as listed
Stability in solution = format: physicochemical; details: solution heated or stored for a long time; decomposes with formation of OF-12
[5] = background statement; cited from earlier work
white mice [6] = details: same bioassay system (JZKEDZ 6,1,1980); cited from earlier work
[7] = read-out: LD50 (animal toxicity)

## COC(=O)/C(=C/C(=O)c1ccccc1)NN=C1c2ccccc2-c2ccccc21 [1F-04, 2-(N′-Fluoren-9-ylidene-hydrazino)-4-oxo-4-phenyl-but-2-enoic acid methyl ester]
[1]
  Activity (ATCC HTB123): 93%
White mice [2]
  LD50: >1000 mg/kg

## COC(=O)C1(O)C(C(=O)c2ccc(C)cc2)=C(O)C(=O)N1c1ccc(C)cc1C (centres unmarked) [1F-07, 1-(2,4-Dimethyl-phenyl)-2,4-dihydroxy-3-(4-methyl-benzoyl)-5-oxo-2,5-dihydro-1H-pyrrole-2-carboxylic acid methyl ester]
[1]
  percent activity against human breast carcinoma: 100%
[3]; [7]
  LD50 at 14 days: > 500 mg/kg
[4]
  Solubility in organic solvents: highly soluble in DMSO, acetonitrile, slightly soluble in dichloroethane, benzene, insoluble in hexane tetrachloromethane
  Solubility in water: insoluble

## COc1ccc(C(=O)C(=NNc2ccccc2)C(=O)C(=O)O)cc1 [3F-10, 4-(4-Methoxy-phenyl)-2,4-dioxo-3-(phenyl-hydrazono)-butyric acid]
[1]
  percent activity against human breast carcinoma: 100%
[3]; [7]
  LD50 at 14 days: < 750 mg/kg
[4]
  Solubility in organic solvents: highly soluble in DMSO, DMFA, slightly soluble in chloroform, dichloroethane; insoluble in hexanes

## CCOC(=O)C(=O)C(=NNc1ccccc1)C(=O)c1ccc(Cl)cc1 [3F-11, 4-(4-Chloro-phenyl)-2,4-dioxo-3-(phenyl-hydrazono)-butyric acid ethyl ester]
[1]
  percent activity against human breast carcinoma: 100%
[3]; [7]
  LD50 at 14 days: > 2000 mg/kg

## COc1c(F)c(F)c(C(=O)C=C(O)C(=O)O)c(F)c1F [3F-15, 2-Hydroxy-4-oxo-4-(2,3,5,6-tetrafluoro-4-methoxy-phenyl)-but-2-enoic acid]
[1]
  percent activity against human breast carcinoma: 100%
[3]; [7]
  LD50 at 14 days: > 200 mg/kg

## Cc1ccc(C(=O)C2=NN(c3ccccc3)C(=O)C2(O)O)cc1 [3F-16, 4,4-Dihydroxy-5-(4-methyl-benzoyl)-2-phenyl-2,4-dihydro-pyrazol-3-one]
[1]
  percent activity against human breast carcinoma: 100%
[3]; [7]
  LD50 at 14 days: > 500 mg/kg
[4]
  Solubility in organic solvents: highly soluble in DMSO, dioxane
  Solubility in water: insoluble

## CCOc1ccc(C(Cl)=CC(=NN=C2c3ccccc3-c3ccccc32)C(=O)OC)cc1 [3F-19, 4-Chloro-4-(4-ethoxy-phenyl)-2-(fluoren-9-ylidene-hydrazono)-but-3-enoic acid methyl ester]
[1]
  Activity (ATCC HTB123): 100%
[3]; read-out: LD50
  LD50 at 14 days: > 200 mg/kg

## COC(=O)C(=CC(=O)C(C)(C)C)NN=C1c2ccccc2-c2ccccc21 [OF-06, 2-(N′-Fluoren-9-ylidene-hydrazino)-5,5-dimethyl-4-oxo-hex-2-enoic acid methyl ester]
[1]
  percent activity against human breast carcinoma: 100%
[4]
  Solubility in organic solvents: highly soluble in DMSO, DMFA, dichloroethane, acetonitrile, slightly soluble in ethanol, tetrachloromethane, insoluble in hexane
  Solubility in water: insoluble

## CCOc1ccc(C(=O)CC(O)(NN=C2c3ccccc3-c3ccccc32)C(=O)OC)cc1 (centres unmarked) [OF-13, 4-(4-Ethoxy-phenyl)-2-(N′-fluoren-9-ylidene-hydrazino)-2-hydroxy-4-oxo-butyric acid methyl ester]
[1]
  Activity (ATCC HTB123): 100%
White mice [2]
  LD50: >1500 mg/kg
[4]
  Solubility in organic solvents: highly soluble in DMSO, DMFA, dichloroethane, acetonitrile, insoluble in hexane
Stability in solution
  Stability in solutions: not stable in solutions

## COC(=O)/C(=C/C(=O)c1ccccc1)N/N=C(\C)c1ccc(Cl)cc1 [OF-20, 2-{N′-[1-(4-Chloro-phenyl)-ethylidene]-hydrazino}-4-oxo-4-phenyl-but-2-enoic acid methyl ester]
[1]
  Activity (ATCC HTB123): 83%

## CC(=O)O[C@H]1C(=O)[C@@]2(C)[C@H]([C@H](OC(=O)c3ccccc3)[C@]3(O)C[C@H](OC(=O)[C@H](O)[C@@H](NC(=O)c4ccccc4)c4ccccc4)C(C)=C1C3(C)C)[C@]1(OC(C)=O)CO[C@@H]1C[C@@H]2O [Taxol]
[5]
  Solubility in water: insoluble in water
White mice [6]
  intraperitoneal LD50 dose in mice: 218 mg/kg
